Experimental data as given in ChEMBL document CHEMBL5465560, “Selectivity Literature for EUbOPEN Chemogenomic Library” (2024).

What was measured:
[1] = target: Serine/threonine-protein kinase MRCK alpha (Homo sapiens) (UniProt Q5VT25); test: Selectivity interaction (Kinase panel (DSF assay)) EUB0001558a CDC42BPA
[2] = target: T1, Serine/threonine-protein kinase Nek3 (Homo sapiens) (UniProt P51956); test: Selectivity interaction (Upstate Kinase Profiler service (Millipore)) EUB0000056c NEK3; conditions: at 1 µM
T1 sequence (whole entry): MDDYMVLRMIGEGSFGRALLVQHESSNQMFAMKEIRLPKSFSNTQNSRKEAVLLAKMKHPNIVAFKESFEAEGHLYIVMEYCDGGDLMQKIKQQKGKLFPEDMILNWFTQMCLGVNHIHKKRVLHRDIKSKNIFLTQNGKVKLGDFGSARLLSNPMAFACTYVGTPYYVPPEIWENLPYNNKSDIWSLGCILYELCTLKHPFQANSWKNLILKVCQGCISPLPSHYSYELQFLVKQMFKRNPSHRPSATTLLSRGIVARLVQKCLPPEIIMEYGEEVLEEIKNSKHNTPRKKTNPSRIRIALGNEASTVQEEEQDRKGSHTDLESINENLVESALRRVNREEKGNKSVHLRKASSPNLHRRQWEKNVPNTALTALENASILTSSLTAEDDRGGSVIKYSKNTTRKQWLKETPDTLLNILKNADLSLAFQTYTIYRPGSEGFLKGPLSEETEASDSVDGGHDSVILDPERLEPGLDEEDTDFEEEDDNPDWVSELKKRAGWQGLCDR

[3] = target: Protein kinase C eta type (Homo sapiens) (UniProt P24723); test: Selectivity interaction (KinomeScan (DiscoverX)) EUB0000655a PRKCH; conditions: at 10 µM
[4] = target: MAP kinase-activated protein kinase 3 (Homo sapiens) (UniProt Q16644); test: Selectivity interaction (ProQinase) EUB0000171b MAPKAPK3
[5] = target: T2, Inhibitor of nuclear factor kappa-B kinase subunit beta (Homo sapiens) (UniProt O14920); test: Selectivity interaction (KinomeScan (DiscoverX)) EUB0001079a IKBKB; conditions: at 1 µM
T2 sequence (whole entry): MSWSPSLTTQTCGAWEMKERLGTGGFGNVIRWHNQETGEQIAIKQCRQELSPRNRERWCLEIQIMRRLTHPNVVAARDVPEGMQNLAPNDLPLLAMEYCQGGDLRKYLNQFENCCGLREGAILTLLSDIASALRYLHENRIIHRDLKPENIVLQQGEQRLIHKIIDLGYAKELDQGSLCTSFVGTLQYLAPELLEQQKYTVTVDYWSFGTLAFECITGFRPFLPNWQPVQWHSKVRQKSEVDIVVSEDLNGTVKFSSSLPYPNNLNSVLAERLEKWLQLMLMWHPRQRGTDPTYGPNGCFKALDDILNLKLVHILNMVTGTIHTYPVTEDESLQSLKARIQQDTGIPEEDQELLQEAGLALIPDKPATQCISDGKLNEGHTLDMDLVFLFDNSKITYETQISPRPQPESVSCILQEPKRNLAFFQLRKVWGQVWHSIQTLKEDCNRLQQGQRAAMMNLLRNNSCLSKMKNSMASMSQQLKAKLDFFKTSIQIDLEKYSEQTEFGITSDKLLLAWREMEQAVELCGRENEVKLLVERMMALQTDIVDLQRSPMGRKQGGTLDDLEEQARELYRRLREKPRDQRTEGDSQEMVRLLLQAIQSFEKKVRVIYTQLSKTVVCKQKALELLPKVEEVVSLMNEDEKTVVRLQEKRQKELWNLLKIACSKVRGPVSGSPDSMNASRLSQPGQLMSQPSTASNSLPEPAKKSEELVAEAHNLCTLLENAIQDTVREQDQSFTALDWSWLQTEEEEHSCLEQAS

[6] = target: Ribosomal protein S6 kinase alpha-5 (Homo sapiens) (UniProt O75582); test: Selectivity interaction (KinomeScan (DiscoverX)) EUB0000666a RPS6KA5; conditions: at 10 µM
[7] = target: Phosphatidylinositol 4-kinase beta (Homo sapiens, UniProt Q9UBF8); test: Selectivity interaction (Adapta Assay) EUB0001632a PI4KB; conditions: at 10 µM
[8] = target: Insulin-like growth factor 1 receptor (Homo sapiens, UniProt P08069); test: Selectivity interaction (KinomeScan (DiscoverX)) EUB0001049a IGF1R; conditions: at 1 µM
Insulin-like growth factor 1 receptor, sequence (P08069 31-736 limits assumed): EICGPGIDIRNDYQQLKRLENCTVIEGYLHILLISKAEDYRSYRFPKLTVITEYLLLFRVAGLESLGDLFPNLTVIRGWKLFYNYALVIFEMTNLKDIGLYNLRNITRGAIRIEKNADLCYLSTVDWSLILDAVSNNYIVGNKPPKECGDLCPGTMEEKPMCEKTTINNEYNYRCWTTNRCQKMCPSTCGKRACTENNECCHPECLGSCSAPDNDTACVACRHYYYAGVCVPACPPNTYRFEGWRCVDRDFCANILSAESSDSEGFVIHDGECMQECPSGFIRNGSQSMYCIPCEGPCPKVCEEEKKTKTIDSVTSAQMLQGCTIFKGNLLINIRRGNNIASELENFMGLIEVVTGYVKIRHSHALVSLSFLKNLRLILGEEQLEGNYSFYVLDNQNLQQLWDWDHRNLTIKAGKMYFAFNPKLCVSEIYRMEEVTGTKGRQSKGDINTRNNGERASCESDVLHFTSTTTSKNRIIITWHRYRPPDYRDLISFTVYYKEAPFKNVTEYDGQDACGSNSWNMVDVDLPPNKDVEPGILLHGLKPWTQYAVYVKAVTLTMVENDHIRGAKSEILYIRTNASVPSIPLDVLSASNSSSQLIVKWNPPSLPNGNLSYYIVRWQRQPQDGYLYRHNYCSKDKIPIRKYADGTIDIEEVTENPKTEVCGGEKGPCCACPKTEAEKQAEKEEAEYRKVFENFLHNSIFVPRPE
Insulin-like growth factor 1 receptor, sequence (P08069 741-1367 limits assumed): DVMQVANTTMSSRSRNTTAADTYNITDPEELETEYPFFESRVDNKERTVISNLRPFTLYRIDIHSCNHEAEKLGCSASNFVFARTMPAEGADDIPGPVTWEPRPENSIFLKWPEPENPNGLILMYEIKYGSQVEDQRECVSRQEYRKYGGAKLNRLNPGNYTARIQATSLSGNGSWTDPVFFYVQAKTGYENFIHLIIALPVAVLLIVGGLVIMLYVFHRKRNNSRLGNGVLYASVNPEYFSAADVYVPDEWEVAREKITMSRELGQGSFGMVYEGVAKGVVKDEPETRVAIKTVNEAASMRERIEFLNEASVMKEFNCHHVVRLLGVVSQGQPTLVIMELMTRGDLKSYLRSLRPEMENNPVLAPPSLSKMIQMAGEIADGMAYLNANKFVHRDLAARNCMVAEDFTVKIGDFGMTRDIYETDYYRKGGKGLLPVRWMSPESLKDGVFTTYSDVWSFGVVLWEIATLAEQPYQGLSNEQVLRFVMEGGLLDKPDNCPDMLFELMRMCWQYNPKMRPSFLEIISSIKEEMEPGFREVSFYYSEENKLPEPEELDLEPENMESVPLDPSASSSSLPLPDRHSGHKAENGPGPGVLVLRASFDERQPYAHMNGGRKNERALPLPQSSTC

MAP kinase-activated protein kinase 3 (Homo sapiens), sequence (Q16644 whole entry, looked up): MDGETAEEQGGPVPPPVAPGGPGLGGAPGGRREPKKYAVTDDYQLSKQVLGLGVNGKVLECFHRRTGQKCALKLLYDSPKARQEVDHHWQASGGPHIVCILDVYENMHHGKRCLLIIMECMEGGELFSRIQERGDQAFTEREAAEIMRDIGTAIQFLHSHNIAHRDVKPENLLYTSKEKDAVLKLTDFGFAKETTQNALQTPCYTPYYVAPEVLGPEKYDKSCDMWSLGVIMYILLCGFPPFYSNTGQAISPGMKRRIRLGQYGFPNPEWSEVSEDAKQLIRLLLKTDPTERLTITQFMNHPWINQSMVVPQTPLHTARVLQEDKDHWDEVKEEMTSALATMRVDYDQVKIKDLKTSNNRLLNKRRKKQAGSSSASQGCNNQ
Ribosomal protein S6 kinase alpha-5 (Homo sapiens), sequence (O75582 whole entry, looked up): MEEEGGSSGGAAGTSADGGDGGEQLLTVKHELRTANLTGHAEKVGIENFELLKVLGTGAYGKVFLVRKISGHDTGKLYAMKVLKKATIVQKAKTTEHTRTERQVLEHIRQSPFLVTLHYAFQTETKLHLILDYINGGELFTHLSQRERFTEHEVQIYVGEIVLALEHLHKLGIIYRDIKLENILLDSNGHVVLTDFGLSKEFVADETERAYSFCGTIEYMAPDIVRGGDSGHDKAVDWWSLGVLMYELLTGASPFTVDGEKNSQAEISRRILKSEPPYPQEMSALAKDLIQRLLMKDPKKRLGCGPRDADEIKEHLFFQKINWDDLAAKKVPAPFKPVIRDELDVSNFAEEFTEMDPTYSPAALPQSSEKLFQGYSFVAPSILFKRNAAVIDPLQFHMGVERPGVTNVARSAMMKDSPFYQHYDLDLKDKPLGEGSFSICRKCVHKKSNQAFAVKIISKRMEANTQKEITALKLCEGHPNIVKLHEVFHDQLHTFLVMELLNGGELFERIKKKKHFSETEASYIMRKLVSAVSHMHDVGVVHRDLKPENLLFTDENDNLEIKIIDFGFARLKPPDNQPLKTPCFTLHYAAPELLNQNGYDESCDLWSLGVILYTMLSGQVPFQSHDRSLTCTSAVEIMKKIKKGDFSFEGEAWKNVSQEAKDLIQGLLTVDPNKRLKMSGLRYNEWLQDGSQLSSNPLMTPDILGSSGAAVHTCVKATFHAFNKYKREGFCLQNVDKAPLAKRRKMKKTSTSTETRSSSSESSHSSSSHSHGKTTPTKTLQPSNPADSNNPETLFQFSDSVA
Protein kinase C eta type (Homo sapiens), sequence (P24723 whole entry): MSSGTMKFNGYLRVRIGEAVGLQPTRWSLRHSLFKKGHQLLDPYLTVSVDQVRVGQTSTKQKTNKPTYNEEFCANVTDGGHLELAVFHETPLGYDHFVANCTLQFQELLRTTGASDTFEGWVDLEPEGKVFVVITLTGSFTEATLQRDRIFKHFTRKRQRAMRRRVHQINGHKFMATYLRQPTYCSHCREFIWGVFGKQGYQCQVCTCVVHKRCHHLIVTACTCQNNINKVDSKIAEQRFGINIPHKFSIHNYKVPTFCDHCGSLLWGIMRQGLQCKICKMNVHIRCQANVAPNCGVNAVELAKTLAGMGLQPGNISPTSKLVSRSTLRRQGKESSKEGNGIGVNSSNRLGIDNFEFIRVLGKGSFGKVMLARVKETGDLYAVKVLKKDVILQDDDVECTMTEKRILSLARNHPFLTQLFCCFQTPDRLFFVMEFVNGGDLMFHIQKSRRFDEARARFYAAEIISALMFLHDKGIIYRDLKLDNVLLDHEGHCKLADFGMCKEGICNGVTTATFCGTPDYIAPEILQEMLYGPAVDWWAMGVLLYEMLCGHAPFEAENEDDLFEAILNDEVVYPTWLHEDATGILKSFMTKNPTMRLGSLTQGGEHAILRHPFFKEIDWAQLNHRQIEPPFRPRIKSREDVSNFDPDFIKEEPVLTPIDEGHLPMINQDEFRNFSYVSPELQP
Phosphatidylinositol 4-kinase beta, sequence (Q9UBF8 2-816 limits assumed): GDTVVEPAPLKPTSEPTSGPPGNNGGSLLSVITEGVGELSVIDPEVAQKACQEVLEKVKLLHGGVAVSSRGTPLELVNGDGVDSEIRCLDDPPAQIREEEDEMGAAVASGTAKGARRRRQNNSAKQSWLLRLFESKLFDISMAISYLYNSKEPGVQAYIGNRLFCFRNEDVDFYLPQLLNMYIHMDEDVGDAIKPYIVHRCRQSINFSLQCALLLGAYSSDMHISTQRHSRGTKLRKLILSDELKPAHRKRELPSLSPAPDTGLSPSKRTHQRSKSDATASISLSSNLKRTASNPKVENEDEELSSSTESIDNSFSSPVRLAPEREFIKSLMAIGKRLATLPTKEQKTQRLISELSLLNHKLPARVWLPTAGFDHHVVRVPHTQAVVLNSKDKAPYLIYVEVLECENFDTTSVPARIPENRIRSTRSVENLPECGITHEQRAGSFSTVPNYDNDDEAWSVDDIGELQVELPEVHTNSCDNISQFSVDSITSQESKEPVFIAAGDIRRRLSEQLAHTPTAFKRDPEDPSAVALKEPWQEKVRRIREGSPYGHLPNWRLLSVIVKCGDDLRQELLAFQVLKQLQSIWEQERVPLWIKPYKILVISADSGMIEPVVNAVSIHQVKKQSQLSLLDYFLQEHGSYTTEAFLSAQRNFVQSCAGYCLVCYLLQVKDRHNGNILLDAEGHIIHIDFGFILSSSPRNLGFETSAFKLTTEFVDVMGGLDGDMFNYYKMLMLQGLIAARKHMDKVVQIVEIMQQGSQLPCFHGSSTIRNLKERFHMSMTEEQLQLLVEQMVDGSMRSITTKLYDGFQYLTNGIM

CC(C)(O)[C@H](F)CN1Cc2cc(NC(=O)c3cnn4cccnc34)c(N3CCOCC3)cc2C1=O
dTM [1]: 0.2 K

Cc1ccc(-c2ccc3c(ccc4sc5c(c43)NC[C@@H](C)NC5=O)n2)cn1
% of inhibition [2]: 6%

CN(C)CCOc1ccc(-c2nc(-c3ccncc3)c(-c3ccc4c(c3)CC/C4=N\O)[nH]2)cc1
% of control [3]: 100%

C=CC(=O)Nc1cccc(C(=O)Nc2ccc(Nc3cc(-c4[nH]c(SC)nc4C)ccn3)cc2)c1
% of control ([4]; at 1 µM): 100%
% of control ([4]; at 5 µM): 65%

Nc1cnc(N2CCc3cc(S(=O)(=O)Nc4c(F)cc(Cl)cc4F)cc(N4CCCC4=O)c32)nc1 [TP-020n]
% of control [5]: 96%

O=C(NOC[C@H](O)CO)c1ccc(F)c(F)c1Nc1ccc(I)cc1F
% of control [6]: 87%

Cn1cc(-n2cnc3c(NCc4nc5cc(Cl)c(Cl)cc5[nH]4)nc(N4CCOCC4)nc32)cn1
% of inhibition [7]: -10.8%

COc1cc(Nc2nc(C)cc(-c3cnn4nc(OC)ccc34)n2)cc(C(F)(F)F)c1
% of control [8]: 91%
